According to ChEMBL document CHEMBL1781873, “Synthesis and antibacterial property of pyrrolopyrano quinolinones and pyrroloquinolines” (2011):
≈ marks a conversion by molar mass, not a printed value. Calls of active or inactive are those of the source. The calls are words filed in the database; no cut-off is given here.

Columns and labels:
Salmonella typhi [1] = experiment: Antibacterial activity against Salmonella typhi at 10 ug after 24 hrs by disc diffusion assay; type: functional, Salmonella enterica subsp. enterica serovar Typhi; settings: Salmonella enterica, read-out: IZ
Klebsiella pneumoniae [2] = experiment: Antibacterial activity against Klebsiella pneumoniae at 15 ug after 24 hrs by disc diffusion assay; type: functional; settings: read-out: IZ
Escherichia coli [3] = experiment: Inhibition of DNA gyrase mRNA expression in Escherichia coli measured up to 24 hrs by RT-PCR; type: functional, organism-based
Escherichia coli [4] = experiment: Antibacterial activity against Escherichia coli after 18 to 20 hrs by broth micro dilution assay; type: functional
Bacillus subtilis [5] = experiment: Antibacterial activity against Bacillus subtilis at 20 ug after 24 hrs by disc diffusion assay; type: functional; settings: read-out: IZ
Pseudomonas aeruginosa [6] = experiment: Antibacterial activity against Pseudomonas aeruginosa after 18 to 20 hrs by broth micro dilution assay; type: functional
Bacillus subtilis [7] = experiment: Antibacterial activity against Bacillus subtilis after 18 to 20 hrs by broth micro dilution assay; type: functional
Pseudomonas aeruginosa [8] = experiment: Antibacterial activity against Pseudomonas aeruginosa at 20 ug after 24 hrs by disc diffusion assay; type: functional; settings: read-out: IZ
Staphylococcus aureus [9] = experiment: Antibacterial activity against Staphylococcus aureus at 5 ug after 24 hrs by disc diffusion assay; type: functional; settings: read-out: IZ
Escherichia coli [10] = experiment: Inhibition of Escherichia coli DNA gyrase -mediated DNA relaxation using pBR322 DNA as substrate at […] after 1 hrs by agarose gel electrophoresis
Pseudomonas aeruginosa [11] = experiment: Antibacterial activity against Pseudomonas aeruginosa at 5 ug after 24 hrs by disc diffusion assay; type: functional; settings: read-out: IZ
Salmonella typhi [12] = experiment: Antibacterial activity against Salmonella typhi at 5 ug after 24 hrs by disc diffusion assay; type: functional, Salmonella enterica subsp. enterica serovar Typhi; settings: Salmonella enterica, read-out: IZ
Salmonella typhi [13] = experiment: Antibacterial activity against Salmonella typhi after 18 to 20 hrs by broth micro dilution assay; type: functional, Salmonella enterica subsp. enterica serovar Typhi; settings: Salmonella enterica
Bacillus subtilis [14] = experiment: Antibacterial activity against Bacillus subtilis at 15 ug after 24 hrs by disc diffusion assay; type: functional; settings: read-out: IZ
Klebsiella pneumoniae [15] = experiment: Antibacterial activity against Klebsiella pneumoniae at 5 ug after 24 hrs by disc diffusion assay; type: functional; settings: read-out: IZ
Klebsiella pneumoniae [16] = experiment: Antibacterial activity against Klebsiella pneumoniae at 10 ug after 24 hrs by disc diffusion assay; type: functional; settings: read-out: IZ
Pseudomonas aeruginosa [17] = experiment: Antibacterial activity against Pseudomonas aeruginosa at 25 ug after 24 hrs by disc diffusion assay; type: functional; settings: read-out: IZ
Escherichia coli [18] = experiment: Inhibition of Escherichia coli DNA gyrase assessed as inhibition of DNA supercoiling activity using pBR322 DNA as substrate at […] after 3 hrs by agarose gel electrophoresis
Klebsiella pneumoniae [19] = experiment: Antibacterial activity against Klebsiella pneumoniae after 18 to 20 hrs by broth micro dilution assay; type: functional
Pseudomonas aeruginosa [20] = experiment: Antibacterial activity against Pseudomonas aeruginosa at 15 ug after 24 hrs by disc diffusion assay; type: functional; settings: read-out: IZ
Pseudomonas aeruginosa [21] = experiment: Antibacterial activity against Pseudomonas aeruginosa at 10 ug after 24 hrs by disc diffusion assay; type: functional; settings: read-out: IZ
Salmonella typhi [22] = experiment: Antibacterial activity against Salmonella typhi at 25 ug after 24 hrs by disc diffusion assay; type: functional, Salmonella enterica subsp. enterica serovar Typhi; settings: Salmonella enterica, read-out: IZ
Staphylococcus aureus [23] = experiment: Antibacterial activity against Staphylococcus aureus at 15 ug after 24 hrs by disc diffusion assay; type: functional; settings: read-out: IZ
Staphylococcus aureus [24] = experiment: Antibacterial activity against Staphylococcus aureus after 18 to 20 hrs by broth micro dilution assay; type: functional
Escherichia coli [25] = experiment: Antibacterial activity against Escherichia coli at 20 ug after 24 hrs by disc diffusion assay; type: functional; settings: read-out: IZ
Staphylococcus aureus [26] = experiment: Antibacterial activity against Staphylococcus aureus at 20 ug after 24 hrs by disc diffusion assay; type: functional; settings: read-out: IZ
Escherichia coli [27] = experiment: Antibacterial activity against Escherichia coli at 5 ug after 24 hrs by disc diffusion assay; type: functional; settings: read-out: IZ
Escherichia coli [28] = experiment: Antibacterial activity against Escherichia coli at 10 ug after 24 hrs by disc diffusion assay; type: functional; settings: read-out: IZ
Staphylococcus aureus [29] = experiment: Antibacterial activity against Staphylococcus aureus at 25 ug after 24 hrs by disc diffusion assay; type: functional; settings: read-out: IZ
Klebsiella pneumoniae [30] = experiment: Antibacterial activity against Klebsiella pneumoniae at 20 ug after 24 hrs by disc diffusion assay; type: functional; settings: read-out: IZ
Bacillus subtilis [31] = experiment: Antibacterial activity against Bacillus subtilis at 25 ug after 24 hrs by disc diffusion assay; type: functional; settings: read-out: IZ
Escherichia coli [32] = experiment: Antibacterial activity against Escherichia coli at 25 ug after 24 hrs by disc diffusion assay; type: functional; settings: read-out: IZ
Klebsiella pneumoniae [33] = experiment: Antibacterial activity against Klebsiella pneumoniae at 25 ug after 24 hrs by disc diffusion assay; type: functional; settings: read-out: IZ
Salmonella typhi [34] = experiment: Antibacterial activity against Salmonella typhi at 15 ug after 24 hrs by disc diffusion assay; type: functional, Salmonella enterica subsp. enterica serovar Typhi; settings: Salmonella enterica, read-out: IZ
Salmonella typhi [35] = experiment: Antibacterial activity against Salmonella typhi at 20 ug after 24 hrs by disc diffusion assay; type: functional, Salmonella enterica subsp. enterica serovar Typhi; settings: Salmonella enterica, read-out: IZ
Escherichia coli [36] = experiment: Antibacterial activity against Escherichia coli at 15 ug after 24 hrs by disc diffusion assay; type: functional; settings: read-out: IZ
Staphylococcus aureus [37] = experiment: Antibacterial activity against Staphylococcus aureus at 10 ug after 24 hrs by disc diffusion assay; type: functional; settings: read-out: IZ

## CCC1[C@@H]2Nc3ccc(Cl)cc3C(C)(C)[C@H]2CN1OS(=O)(=O)c1ccc(C)cc1 (stereo partly specified)
Salmonella typhi [1]
  zone of inhibition at 10 µg/disc: 16 mm
Klebsiella pneumoniae [2]
  zone of inhibition at 15 µg/disc: 30 mm
Escherichia coli [3]
  inhibition of gyrase mRNA expression (active/not active): Active
Escherichia coli [4]
  MIC50: 128 µg/mL (≈ 294 µM)
  MIC90: 128 µg/mL (≈ 294 µM)
Bacillus subtilis [5]
  zone of inhibition at 20 µg/disc: 7 mm
Pseudomonas aeruginosa [6]
  MIC50: 128 µg/mL (≈ 294 µM)
  MIC90: 128 µg/mL (≈ 294 µM)
Bacillus subtilis [7]
  MIC50: 128 µg/mL (≈ 294 µM)
  MIC90: 128 µg/mL (≈ 294 µM)
Pseudomonas aeruginosa [8]
  zone of inhibition at 20 µg/disc: 20 mm
Staphylococcus aureus [9]
  zone of inhibition at 5 µg/disc: 20 mm
Escherichia coli [10]
  inhibition: Active
Pseudomonas aeruginosa [11]
  zone of inhibition at 5 µg/disc: 10 mm
Salmonella typhi [12]
  zone of inhibition at 5 µg/disc: 10 mm
Salmonella typhi [13]
  MIC50: 128 µg/mL (≈ 294 µM)
  MIC90: 128 µg/mL (≈ 294 µM)
Bacillus subtilis [14]
  zone of inhibition at 15 µg/disc: 6 mm
Klebsiella pneumoniae [15]
  zone of inhibition at 5 µg/disc: 20 mm
Klebsiella pneumoniae [16]
  zone of inhibition at 10 µg/disc: 26 mm
Pseudomonas aeruginosa [17]
  zone of inhibition at 25 µg/disc: 23 mm
Escherichia coli [18]
  DNA gyrase inhibition (active/inactive): Active
Klebsiella pneumoniae [19]
  MIC50: 128 µg/mL (≈ 294 µM)
  MIC90: 128 µg/mL (≈ 294 µM)
Pseudomonas aeruginosa [20]
  zone of inhibition at 15 µg/disc: 16 mm
Pseudomonas aeruginosa [21]
  zone of inhibition at 10 µg/disc: 14 mm
Salmonella typhi [22]
  zone of inhibition at 25 µg/disc: 24 mm
Staphylococcus aureus [23]
  zone of inhibition at 15 µg/disc: 26 mm
Staphylococcus aureus [24]
  MIC50: 128 µg/mL (≈ 294 µM)
  MIC90: 128 µg/mL (≈ 294 µM)
Escherichia coli [25]
  zone of inhibition at 20 µg/disc: 20 mm
Staphylococcus aureus [26]
  zone of inhibition at 20 µg/disc: 30 mm
Escherichia coli [27]
  zone of inhibition at 5 µg/disc: 10 mm
Escherichia coli [28]
  zone of inhibition at 10 µg/disc: 16 mm
Staphylococcus aureus [29]
  zone of inhibition at 25 µg/disc: 36 mm
Klebsiella pneumoniae [30]
  zone of inhibition at 20 µg/disc: 34 mm
Bacillus subtilis [31]
  zone of inhibition at 25 µg/disc: 9 mm
Escherichia coli [32]
  zone of inhibition at 25 µg/disc: 23 mm
Klebsiella pneumoniae [33]
  zone of inhibition at 25 µg/disc: 36 mm
Salmonella typhi [34]
  zone of inhibition at 15 µg/disc: 18 mm
Salmonella typhi [35]
  zone of inhibition at 20 µg/disc: 22 mm
Escherichia coli [36]
  zone of inhibition at 15 µg/disc: 18 mm
Staphylococcus aureus [37]
  zone of inhibition at 10 µg/disc: 24 mm

## CCC1[C@@H]2Nc3ccccc3C(c3ccccc3)[C@H]2CN1OS(=O)(=O)c1ccc(C)cc1 (stereo partly specified)
Salmonella typhi [1]
  zone of inhibition at 10 µg/disc: 16 mm
Klebsiella pneumoniae [2]
  zone of inhibition at 15 µg/disc: 30 mm
Escherichia coli [3]
  inhibition of gyrase mRNA expression (active/not active): inactive
Escherichia coli [4]
  MIC50: 64 µg/mL (≈ 143 µM)
  MIC90: 64 µg/mL (≈ 143 µM)
Bacillus subtilis [5]
  zone of inhibition at 20 µg/disc: 7 mm
Pseudomonas aeruginosa [6]
  MIC50: 64 µg/mL (≈ 143 µM)
  MIC90: 128 µg/mL (≈ 285 µM)
Bacillus subtilis [7]
  MIC50: 64 µg/mL (≈ 143 µM)
  MIC90: 128 µg/mL (≈ 285 µM)
Pseudomonas aeruginosa [8]
  zone of inhibition at 20 µg/disc: 20 mm
Staphylococcus aureus [9]
  zone of inhibition at 5 µg/disc: 20 mm
Escherichia coli [10]
  inhibition: Active
Pseudomonas aeruginosa [11]
  zone of inhibition at 5 µg/disc: 10 mm
Salmonella typhi [12]
  zone of inhibition at 5 µg/disc: 10 mm
Salmonella typhi [13]
  MIC50: 64 µg/mL (≈ 143 µM)
  MIC90: 128 µg/mL (≈ 285 µM)
Bacillus subtilis [14]
  zone of inhibition at 15 µg/disc: 6 mm
Klebsiella pneumoniae [15]
  zone of inhibition at 5 µg/disc: 20 mm
Klebsiella pneumoniae [16]
  zone of inhibition at 10 µg/disc: 26 mm
Pseudomonas aeruginosa [17]
  zone of inhibition at 25 µg/disc: 23 mm
Escherichia coli [18]
  DNA gyrase inhibition (active/inactive): Active
Klebsiella pneumoniae [19]
  MIC50: 64 µg/mL (≈ 143 µM)
  MIC90: 64 µg/mL (≈ 143 µM)
Pseudomonas aeruginosa [20]
  zone of inhibition at 15 µg/disc: 16 mm
Pseudomonas aeruginosa [21]
  zone of inhibition at 10 µg/disc: 14 mm
Salmonella typhi [22]
  zone of inhibition at 25 µg/disc: 24 mm
Staphylococcus aureus [23]
  zone of inhibition at 15 µg/disc: 26 mm
Staphylococcus aureus [24]
  MIC50: 64 µg/mL (≈ 143 µM)
  MIC90: 128 µg/mL (≈ 285 µM)
Escherichia coli [25]
  zone of inhibition at 20 µg/disc: 20 mm
Staphylococcus aureus [26]
  zone of inhibition at 20 µg/disc: 30 mm
Escherichia coli [27]
  zone of inhibition at 5 µg/disc: 10 mm
Escherichia coli [28]
  zone of inhibition at 10 µg/disc: 16 mm
Staphylococcus aureus [29]
  zone of inhibition at 25 µg/disc: 36 mm
Klebsiella pneumoniae [30]
  zone of inhibition at 20 µg/disc: 34 mm
Bacillus subtilis [31]
  zone of inhibition at 25 µg/disc: 9 mm
Escherichia coli [32]
  zone of inhibition at 25 µg/disc: 23 mm
Klebsiella pneumoniae [33]
  zone of inhibition at 25 µg/disc: 36 mm
Salmonella typhi [34]
  zone of inhibition at 15 µg/disc: 18 mm
Salmonella typhi [35]
  zone of inhibition at 20 µg/disc: 22 mm
Escherichia coli [36]
  zone of inhibition at 15 µg/disc: 18 mm
Staphylococcus aureus [37]
  zone of inhibition at 10 µg/disc: 24 mm
